# Data reported in ChEMBL document CHEMBL3886683, “Apoptosis signal-regulating kinase inhibitor” (2016).
# How the values were obtained:
# Cytochrome P450 3A4 [1] = target: T1, Cytochrome P450 3A4 (Homo sapiens, UniProt P08684); assay: (§1) Inhibition Assay: Six test compound concentrations (0.1, 0.25, 1, 2.5, 10, 25 μM in DMSO; final DMSO concentration=0.275%) are incubated with human liver microsomes (0.5 mg/mL) and NADPH (1 mM) in the presence of the probe substrate testosterone (50 μM) for 5 min at 37° C. The selective CYP3A4 inhibitor, ketoconazole, is screened alongside the test compounds as a positive control.
# T1 sequence (P08684 whole entry): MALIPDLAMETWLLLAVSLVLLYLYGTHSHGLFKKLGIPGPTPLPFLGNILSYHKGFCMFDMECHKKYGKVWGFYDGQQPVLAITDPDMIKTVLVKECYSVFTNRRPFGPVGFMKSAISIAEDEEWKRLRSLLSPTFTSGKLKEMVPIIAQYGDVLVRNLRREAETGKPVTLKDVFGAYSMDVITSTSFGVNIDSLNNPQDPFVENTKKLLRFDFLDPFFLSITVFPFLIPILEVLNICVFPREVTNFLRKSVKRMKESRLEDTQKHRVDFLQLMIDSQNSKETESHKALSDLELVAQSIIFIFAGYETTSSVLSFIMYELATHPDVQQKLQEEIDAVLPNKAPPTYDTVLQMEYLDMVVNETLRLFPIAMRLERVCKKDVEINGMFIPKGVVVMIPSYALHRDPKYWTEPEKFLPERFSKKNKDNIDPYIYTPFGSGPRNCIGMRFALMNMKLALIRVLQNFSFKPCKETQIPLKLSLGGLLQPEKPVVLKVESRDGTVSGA
# Cytochrome P450 1A1 = target: T2, Cytochrome P450 1A1 (Homo sapiens, UniProt P04798); assay: as §1, with “concentration=0.3%)” for “concentration=0.275%)”, “([…])” for “(0.5 mg/mL)”, “ethoxyresorufin (0.5” for “testosterone (50”, “CYP1A” for “CYP3A4”, “alpha-naphthoflavone,” for “ketoconazole,”
# T2 sequence (P04798 whole entry): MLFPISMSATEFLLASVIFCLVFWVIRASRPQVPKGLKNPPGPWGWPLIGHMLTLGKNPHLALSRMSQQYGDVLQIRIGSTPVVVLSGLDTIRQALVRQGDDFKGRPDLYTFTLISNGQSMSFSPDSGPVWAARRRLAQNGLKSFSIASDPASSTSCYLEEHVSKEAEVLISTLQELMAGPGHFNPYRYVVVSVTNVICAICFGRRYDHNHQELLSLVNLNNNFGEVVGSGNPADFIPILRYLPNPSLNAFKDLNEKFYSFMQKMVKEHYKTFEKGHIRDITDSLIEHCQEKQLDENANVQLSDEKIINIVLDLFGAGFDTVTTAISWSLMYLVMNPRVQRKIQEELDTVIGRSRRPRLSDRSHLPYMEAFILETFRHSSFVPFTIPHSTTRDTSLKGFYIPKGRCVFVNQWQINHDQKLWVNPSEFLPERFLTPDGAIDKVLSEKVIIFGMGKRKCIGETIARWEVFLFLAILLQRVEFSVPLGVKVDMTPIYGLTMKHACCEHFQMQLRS
# Cytochrome P450 2B6 = target: T3, Cytochrome P450 2B6 (Homo sapiens, UniProt P20813); assay: as §1, with “concentration=0.3%)” for “concentration=0.275%)”, “(0.1” for “(0.5”, “bupropion (110” for “testosterone (50”, “CYP2B6” for “CYP3A4”, “ticlopidine,” for “ketoconazole,”
# T3 sequence (P20813 whole entry): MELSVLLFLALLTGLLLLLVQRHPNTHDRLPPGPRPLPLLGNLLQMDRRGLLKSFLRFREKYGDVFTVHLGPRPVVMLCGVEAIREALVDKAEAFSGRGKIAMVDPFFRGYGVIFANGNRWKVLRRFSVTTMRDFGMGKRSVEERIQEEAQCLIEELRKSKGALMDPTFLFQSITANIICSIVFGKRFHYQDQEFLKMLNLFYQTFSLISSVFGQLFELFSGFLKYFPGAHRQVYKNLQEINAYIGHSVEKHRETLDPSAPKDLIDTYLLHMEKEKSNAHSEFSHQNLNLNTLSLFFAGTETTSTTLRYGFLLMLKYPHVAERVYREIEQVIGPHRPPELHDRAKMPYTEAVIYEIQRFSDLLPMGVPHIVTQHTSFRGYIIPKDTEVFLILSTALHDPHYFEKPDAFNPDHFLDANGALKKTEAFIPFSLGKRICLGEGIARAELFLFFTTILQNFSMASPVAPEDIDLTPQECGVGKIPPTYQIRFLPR
# Cytochrome P450 2C9 = Cytochrome P450 2C9 (Homo sapiens, UniProt P11712); assay: (§2) Inhibition Assay: Six test compound concentrations (0.1, 0.25, 1, 2.5, 10, 25 μM in DMSO; final DMSO concentration=[…]) are incubated with human liver microsomes (1 mg/mL) and NADPH (1 mM) in the presence of the probe substrate tolbutamide (120 μM) for 60 min at 37° C. The selective CYP2C9 inhibitor, sulphaphenazole, is screened alongside the test compounds as a positive control.
# Cytochrome P450 2C9, sequence (P11712 whole entry): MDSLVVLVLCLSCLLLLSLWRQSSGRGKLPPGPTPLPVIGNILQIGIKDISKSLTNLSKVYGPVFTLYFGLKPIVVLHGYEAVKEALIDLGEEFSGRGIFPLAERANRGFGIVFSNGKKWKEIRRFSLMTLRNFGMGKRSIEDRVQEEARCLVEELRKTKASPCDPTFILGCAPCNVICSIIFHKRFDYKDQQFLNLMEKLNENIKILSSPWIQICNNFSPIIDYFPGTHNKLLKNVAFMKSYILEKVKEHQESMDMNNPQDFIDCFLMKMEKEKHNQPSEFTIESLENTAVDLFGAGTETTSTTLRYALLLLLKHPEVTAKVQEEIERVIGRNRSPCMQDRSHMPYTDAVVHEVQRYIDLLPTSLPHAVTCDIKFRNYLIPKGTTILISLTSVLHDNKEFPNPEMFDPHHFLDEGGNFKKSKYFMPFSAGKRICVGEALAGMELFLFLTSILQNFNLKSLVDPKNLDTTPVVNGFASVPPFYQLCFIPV
# Cytochrome P450 2C8 = target: T4, Cytochrome P450 2C8 (Homo sapiens, UniProt P10632); assay: Inhibition Assay: Six test compound concentrations (0.1, 0.25, 1, 2.5, 10, 25 μM in DMSO; final DMSO concentration=0.3%) are incubated with human liver microsomes ([…]) and NADPH (1 mM) in the presence of the probe substrate paclitaxel (7.5 μM) for 30 min at 37° C. The selective CYP2C8 inhibitor, montelukast, is screened alongside the test compounds as a positive control.
# T4 sequence (P10632 whole entry): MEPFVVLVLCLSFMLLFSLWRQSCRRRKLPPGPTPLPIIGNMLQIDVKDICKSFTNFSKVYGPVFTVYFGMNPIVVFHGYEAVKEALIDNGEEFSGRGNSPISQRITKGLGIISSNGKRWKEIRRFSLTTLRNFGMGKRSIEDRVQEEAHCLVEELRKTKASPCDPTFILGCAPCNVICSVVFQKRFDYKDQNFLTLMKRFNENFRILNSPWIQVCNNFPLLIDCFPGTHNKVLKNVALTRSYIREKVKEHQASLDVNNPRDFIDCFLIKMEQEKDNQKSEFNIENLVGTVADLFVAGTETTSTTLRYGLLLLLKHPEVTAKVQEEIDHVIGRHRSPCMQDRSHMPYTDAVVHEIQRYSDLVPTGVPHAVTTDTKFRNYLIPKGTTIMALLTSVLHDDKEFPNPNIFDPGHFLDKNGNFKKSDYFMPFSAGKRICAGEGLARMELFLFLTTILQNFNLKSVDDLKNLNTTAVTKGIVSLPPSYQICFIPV
# Cytochrome P450 2C19 = Cytochrome P450 2C19 (Homo sapiens, UniProt P33261); assay: as §2, with “microsomes (0.5” for “microsomes (1”, “substrate mephenytoin (25” for “substrate tolbutamide (120”, “selective CYP2C19” for “selective CYP2C9”, “inhibitor, tranylcypromine,” for “inhibitor, sulphaphenazole,”
# Cytochrome P450 2C19, sequence (P33261 whole entry): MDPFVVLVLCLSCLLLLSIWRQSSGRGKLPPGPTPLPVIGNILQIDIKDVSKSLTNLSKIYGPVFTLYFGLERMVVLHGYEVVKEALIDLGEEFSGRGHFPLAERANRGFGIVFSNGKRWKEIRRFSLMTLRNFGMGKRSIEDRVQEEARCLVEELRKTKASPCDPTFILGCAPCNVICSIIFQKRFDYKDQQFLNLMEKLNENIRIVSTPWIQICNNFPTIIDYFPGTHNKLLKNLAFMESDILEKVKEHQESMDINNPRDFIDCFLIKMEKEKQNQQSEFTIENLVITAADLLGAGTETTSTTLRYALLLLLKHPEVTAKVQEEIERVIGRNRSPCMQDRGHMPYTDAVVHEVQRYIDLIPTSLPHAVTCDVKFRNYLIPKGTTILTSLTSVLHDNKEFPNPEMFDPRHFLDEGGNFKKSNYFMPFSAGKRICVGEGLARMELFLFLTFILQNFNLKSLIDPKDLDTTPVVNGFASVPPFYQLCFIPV
# Cytochrome P450 3A4 [2] = target: T1, Cytochrome P450 3A4; assay: as §1, with “concentration=0.26%)” for “concentration=0.275%)”, “(0.1” for “(0.5”, “midazolam ([…])” for “testosterone (50 μM)”
smiles,measurement,setting,value
C[C@]12CC[C@H]3[C@@H](C[C@@H](O)C4=CC(=O)CC[C@@]43C)[C@@H]1CC[C@@H]2O [6beta-hydroxytestosterone],IC50,Cytochrome P450 3A4 [1],10.5 µM
O=c1ccc2nc3ccc(O)cc3oc-2c1,IC50,Cytochrome P450 1A1,> 25 µM
CC(NC(C)(C)CO)C(=O)c1cccc(Cl)c1 (configuration not stated),IC50,Cytochrome P450 2B6,19.2 µM
CCCCNC(=O)NS(=O)(=O)c1ccc(CO)cc1,IC50,Cytochrome P450 2C9,> 25 µM
CC(=O)O[C@H]1C(=O)[C@@]2(C)[C@H]([C@H](OC(=O)c3ccccc3)[C@]3(O)C[C@H](OC(=O)[C@H](O)[C@@H](NC(=O)c4ccccc4)c4ccccc4)C(C)=C1C3(C)C)[C@]1(OC(C)=O)CO[C@@H]1[C@@H](O)[C@@H]2O,IC50,Cytochrome P450 2C8,21.6 µM
CCC1(c2ccc(O)cc2)NC(=O)N(C)C1=O (configuration not stated),IC50,Cytochrome P450 2C19,> 25 µM
OCc1ncc2n1-c1ccc(Cl)cc1C(c1ccccc1F)=NC2 [ALPHA-HYDROXY-MIDAZOLAM],IC50,Cytochrome P450 3A4 [2],2.7 µM
